Results as given in paper PMC5623046, “A Simple PB/LIE Free Energy Function Accurately Predicts the Peptide Binding Specificity of the Tiam1 PDZ Domain” (Frontiers in Molecular Biosciences, 2017).
Values joined by “and” are separate entries in the source; they are usually repeats but may differ in a detail not shown here. Identical values can stand only once. Like-named read-outs stand apart in the source and are kept apart here. Marks after values point to notes of the source that are not given here. One block for each substance: values may come before it.

Legend:
[1] = target: T1, wildtype Tiam1 PDZ domain (WT) (Homo sapiens, UniProt Q13009); conditions: relative to WT:Sdc1; ref Shepherd et al., [2011]; Liu et al., [2013]; cited from earlier work
T1 construct: The Tiam1 PDZ domain was purified by nickel-chelate (GE-Healthcare) and size-exclusion chromatography; His6 (N, cleaved yes); made in house; host or cells: Escherichia coli BL21(DE3)
From the text: Table 1 Tiam1-PDZ:peptide complexes and free energies used for model fitting. | column: Exp.^a || Table 2 Tiam1-PDZ:peptide complexes and free energies not used for model fitting. | column: Exp.^a || Table 4 Alchemical free energy simulation (FEP) results. | column: Exp. || (+ 3 further places)

Tiam1 PDZ domain L920V = conditions: ref Shepherd et al., [2011], Liu et al., [2013], cited from earlier work; for Exp. relative binding free energy ΔΔG: relative to WT:Sdc1
From the text: Table 1 Tiam1-PDZ:peptide complexes and free energies used for model fitting. | column: Exp.^a || Tables 1, 2 list the 44 peptide and protein variants for which experimental binding data are available along with the corresponding binding free energy differences (ΔΔG) relative to the wildtype:Sdc1 complex (WT:Sdc1), taken as a reference. Notice that positions within each peptide ligand are numbered backwards from the C-terminus (“position 0”). For two complexes, experimental measurements were not available and ΔΔG was obtained in this work using rigorous alchemical free energy simulations (see below). Seventeen of the complexes involve Tiam1 mutations at one or more of four positions. These ...

[2] = system: Tiam1 PDZ domain L915F,L920V; conditions: relative to WT:Sdc1; ref Shepherd et al., [2011]; Liu et al., [2013]; cited from earlier work
From the text: (§1) Table 1 Tiam1-PDZ:peptide complexes and free energies used for model fitting. | column: Exp.^a || Table 2 Tiam1-PDZ:peptide complexes and free energies not used for model fitting. | column: Exp.^a

[3] = system: Tiam1 PDZ domain L911M,K912E; conditions: relative to WT:Sdc1; ref Shepherd et al., [2011]; Liu et al., [2013]; cited from earlier work
From the text: as §1

[4] = system: Tiam1 PDZ domain quadruple mutant (QM); conditions: relative to WT:Sdc1; ref Shepherd et al., [2011]; Liu et al., [2013]; cited from earlier work
From the text: as §1

Tiam1 PDZ domain L915F = conditions: relative to WT:Sdc1; ref Shepherd et al., [2011]; Liu et al., [2013]; cited from earlier work
From the text: (§2) Table 1 Tiam1-PDZ:peptide complexes and free energies used for model fitting. | column: Exp.^a

Tiam1 PDZ domain K912E = conditions: relative to WT:Sdc1; ref Shepherd et al., [2011]; Liu et al., [2013]; cited from earlier work
From the text: as §2

Tiam1 PDZ domain L911M = conditions: relative to WT:Sdc1; ref Shepherd et al., [2011]; Liu et al., [2013]; cited from earlier work
From the text: as §2

[5] = target: Syndecan-1 (Sdc1) peptide (Homo sapiens) (UniProt P18827); conditions: cited from earlier work
[6] = target: T1, wildtype Tiam1 PDZ domain (WT); test: Fluorescence anisotropy binding of dansylated peptides; conditions: for Exp. relative binding free energy ΔΔG: relative to WT:Sdc1, this work, dansylated peptide 5–10 μM, 20 mM sodium phosphate, 50 mM NaCl, pH 6.8, 25°C, triplicate
Method: Typically, E. coli cells were grown at 37°C in Luria-Bertani (LB) medium supplemented with ampicillin (100 μg/mL) under vigorous agitation until an A600 of 0.6–0.8 was reached. Cultures were subsequently cooled to 18°C and protein expression was induced by the addition of isopropyl 1-thio-β-d-galactopyranoside (IPTG) to 1 mM final concentration. Induced cells were incubated for an additional 16–18 h at 18°C and harvested by centrifugation. The Tiam1 PDZ domain was purified by nickel-chelate (GE-Healthcare) and size-exclusion chromatography (Shepherd et al., [2010]). […] Undigested protein, cleaved His6 tag and His-tagged rTEV were separated from Tiam1 PDZ domain by nickel-chelate chromatography. The final yield was 20 mg of PDZ protein (>98% pure as judged by SDS-PAGE) from 1 L of culture. Samples were used immediately or lyophilized and stored at […].
All peptides were chemically synthesized by GenScript Inc. (Piscataway, NJ) and judged to be >95% pure based on analytical HPLC and mass spectrometry. Peptides were dansylated at their N-terminus. Peptide concentrations were determined by absorbance measurements (A280) using their predicted extinction coefficient. The peptides used in this study were Syndecan1 (Sdc1) point mutants and double mutants: Sdc1 (residues 303–310 of the full Syndecan protein: TKQEEFYACOOH), Sdc1-A0M (residues 303–310: TKQEEFYMCOOH), Sdc1-F2R (residues 303–310: TKQEERYACOOH), Sdc1-F2R/A0M (residues 303–310: TKQEERYMCOOH), Sdc1-F2A (residues 303–310: TKQEEAYACOOH), Sdc1-F2N (residues 303-310: TKQEENYACOOH), Sdc1-F2I (residues 303–310: TKQEEIYACOOH), Sdc1-E4L (residues 303–310: TKQLEFYACOOH), Sdc1-E3D/Y1T (residues 303–310: TKQEDFTACOOH), and Sdc1-E3T/Y1K (residues 303–310: TKQETFKACOOH). Notice that here and below, for the Sdc1 and other peptides, we number residue positions counting backwards from the peptide C-terminus (position 0). Thus, Sdc1-F2R is mutated at the third position from the C-terminus, which is usually called “position −2” (Shepherd and Fuentes, [2011]). We drop the negative sign to keep the notation simple.
Fluorescence anisotropy was used to monitor the binding of Tiam1 PDZ domain proteins to dansylated peptides. Anisotropy measurements were carried out on a Fluorolog3 (Jobin Yvon, Horiba, NJ) spectrofluorimeter (γex = 340 and γem = 550 nm). All data collection, fitting, and thermodynamic analyses were performed as previously described (Shepherd et al., [2011]). Binding experiments were conducted in 1.3 mL of binding buffer (20 mM sodium phosphate, 50 mM NaCl and pH 6.8) containing peptide at a concentration of 5–10 μM. Measurements were made in a 2 mL quartz cuvette that was stirred and maintained at constant 25°C temperature. The slit widths for the control of excitation and emission intensity were adjusted to the signal-to-noise ratio and maximum intensity and set in the range of 6–9 nm. A ratio of 1:100 and 1:10 dilutions of the stock PDZ protein solution (~1 mM) were prepared in binding buffer. For each experiment, 20–30 individual titration steps were performed until the sample had little or no change in anisotropy. The change in fluorescence anisotropy was plotted against protein concentration and fit to a standard hyperbolic ligand-binding curve. Each titration was carried out in triplicate.

T1 sequence (Q13009 841-930 limits assumed): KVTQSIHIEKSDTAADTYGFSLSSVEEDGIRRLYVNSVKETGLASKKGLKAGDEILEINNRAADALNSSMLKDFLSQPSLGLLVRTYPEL
Chain of Tiam1 PDZ (Q13009 842-911): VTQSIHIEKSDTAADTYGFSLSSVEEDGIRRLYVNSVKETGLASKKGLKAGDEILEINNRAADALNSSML
Chain of Syndecan-1 (Sdc1) peptide (Homo sapiens) (P18827 23-310): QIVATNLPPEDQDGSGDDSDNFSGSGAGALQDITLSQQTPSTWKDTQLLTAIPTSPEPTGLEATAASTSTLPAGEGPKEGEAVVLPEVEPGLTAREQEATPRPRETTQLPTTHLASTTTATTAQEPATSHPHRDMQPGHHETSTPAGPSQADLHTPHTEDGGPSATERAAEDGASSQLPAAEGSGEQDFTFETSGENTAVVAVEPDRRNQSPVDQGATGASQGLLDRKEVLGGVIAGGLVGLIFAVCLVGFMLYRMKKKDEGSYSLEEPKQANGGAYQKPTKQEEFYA

Substance: YAAGRKHF
Exp. relative binding free energy ΔΔG [1]: ≥ 1.32^g kcal/mol

Substance: YAARKFAK
Exp. relative binding free energy ΔΔG [1]: ≥ 1.32^g kcal/mol

Substance: YAAYRYRA
Exp. relative binding free energy ΔΔG [1]: ≥ 1.32^g kcal/mol

Substance: YAAEKYWA [peptide from a combinatorial library]
Exp. relative binding free energy ΔΔG [1]: 0.72 kcal/mol

Substance: SSRKEYYA [Consensus]
Exp. relative binding free energy ΔΔG [1]: 0.84 kcal/mol

Substance: YAAKAFRF [peptide from a combinatorial library]
Exp. relative binding free energy ΔΔG [1]: 1.17 kcal/mol

Substance: TKQEEFYACOOH [Sdc1, C-terminal peptide of Syndecan1, residues 303–310]
Exp. relative binding free energy ΔΔG (Tiam1 PDZ domain L920V): 0.31 kcal/mol | Exp. relative binding free energy ΔΔG [1]: 0.00 kcal/mol | Exp. relative binding free energy ΔΔG [2]: 1.32 kcal/mol | Exp. relative binding free energy ΔΔG [3]: 1.21 kcal/mol | Exp. relative binding free energy ΔΔG [4]: 0.89 kcal/mol | Exp. relative binding free energy ΔΔG (Tiam1 PDZ domain L915F): 0.65 kcal/mol | Exp. relative binding free energy ΔΔG (Tiam1 PDZ domain K912E): 0.97 kcal/mol | Exp. relative binding free energy ΔΔG (Tiam1 PDZ domain L911M): 0.15 kcal/mol

Substance: NKDKEYYV [Neur, peptide corresponding to the C-terminus of Neurexin]
Exp. relative binding free energy ΔΔG [2]: 1.08 kcal/mol | Exp. relative binding free energy ΔΔG [3]: 1.25 kcal/mol | Exp. relative binding free energy ΔΔG [4]: 0.32 kcal/mol

Substance: Tiam1 PDZ (from UniProt Q13009)
Kd [5]: 26.9 µM

Exp. relative binding free energy ΔΔG [6]: 0.56^e kcal/mol
Substance: TKQLEFYACOOH [Sdc1.E4L, Sdc1 point mutant, Leu at position 4]

Substance: YAALIHKF
Exp. relative binding free energy ΔΔG [1]: ≥ 1.32^g kcal/mol

Substance: YAAKRTYV
Exp. relative binding free energy ΔΔG [1]: ≥ 1.32^g kcal/mol

Substance: YAAQKHFH
Exp. relative binding free energy ΔΔG [1]: ≥ 1.32^g kcal/mol

Exp. relative binding free energy ΔΔG [6]: 0.87^e kcal/mol
Substance: TKQEDFTACOOH [Sdc1.E3D, Y1T, Sdc1 double mutant]

Exp. relative binding free energy ΔΔG [6]: 1.56^d kcal/mol and 1.56 kcal/mol
Substance: TKQEEFYMCOOH [Sdc1.A0M, Sdc1 point mutant, Met at position 0]

Substance: ENQKEYFF [Caspr4, peptide corresponding to the C-terminus of Caspr4]
Exp. relative binding free energy ΔΔG (Tiam1 PDZ domain L920V): -0.54 kcal/mol | Kd (Tiam1 PDZ domain L920V; strongest binding in the dataset): 10.8 µM | Exp. relative binding free energy ΔΔG [1]: -0.21 kcal/mol | Exp. relative binding free energy ΔΔG [2]: 0.62 kcal/mol | Exp. relative binding free energy ΔΔG [3]: 0.04 kcal/mol | Exp. relative binding free energy ΔΔG [4]: -0.23 kcal/mol | Exp. relative binding free energy ΔΔG (Tiam1 PDZ domain L915F): 0.48 kcal/mol | Exp. relative binding free energy ΔΔG (Tiam1 PDZ domain K912E): 0.46 kcal/mol | Exp. relative binding free energy ΔΔG (Tiam1 PDZ domain L911M): -0.39 kcal/mol

Exp. relative binding free energy ΔΔG [6]: 1.33^e kcal/mol | Exp. relative binding free energy ΔΔG ([6]; listed as Sdc1-E3T,Y1K): 1.33 kcal/mol
Substance: TKQETFKACOOH [Sdc1.E3T, Y1K, Sdc1 double mutant]

Exp. relative binding free energy ΔΔG [6]: ≥ 1.32 kcal/mol
Substance: TKQEEAYACOOH [Sdc1-F2A, Sdc1 point mutant, Ala at position 2]

Exp. relative binding free energy ΔΔG [6]: ≥ 1.32 kcal/mol
Substance: TKQEENYACOOH [Sdc1-F2N, Sdc1 point mutant, Asn at position 2]

Exp. relative binding free energy ΔΔG [6]: ≥ 1.32 kcal/mol | affinity for WT (in words) ([6]; this work): does not have a detectable affinity
Substance: TKQEERYACOOH [Sdc1-F2R, Sdc1 point mutant, Arg at position 2]

Exp. relative binding free energy ΔΔG [6]: 0.80^e kcal/mol and 0.80 kcal/mol
Substance: TKQEEIYACOOH [Sdc1.F2I, Sdc1 point mutant, Ile at position 2]
